Measurements published in US10688082B2, “Aminopyrazine compounds with A2A antagonist properties” (Merck Sharp & Dohme Corp., priority 2015, dated 2020).

Target: T1, human A2a receptor (Homo sapiens, UniProt P29274)
T1 construct: purchased Perkin-Elmer RBHA2AM400UA; host or cells: HEK293 cells (membranes)
Experiment: Competition binding assay using Scintillation Proximity technology (A2a activity)
Description: Binding affinities of compounds of the invention for the human A2a receptor were determined in a competition binding assay using Scintillation Proximity technology. Thus, […] from HEK293 cells expressing the human A2a receptor were incubated with a compound of the invention at concentrations ranging from 3000 nM to 0.15 nM in a reaction mixture containing also 0.5 nM of a tritiated form of 5-amino-7-[2-phenethyl]-2-(furan-2-yl)-7H-pyrazolo[4,3-e][1,2,4]triazolo[1,5-c]pyrimidine (the tritiated compound) and 100 μg of wheat germ agglutin-coated yttrium silicate SPA beads for one hour at room temperature with agitation. The beads were then allowed to settle to the bottom of the wells for 1 hr, after which the membrane-associated radioactivity was determined by scintillation counting in a TopCount microplate reader. Ki values were determined using the Cheng-Prusoff equation.
HEK293 cells expressing the human, rat, dog or monkey adenosine 2a receptor (Purchased from Perkin-Elmer # RBHA2AM400UA).
The Tritiated compound was prepared according to published methods.
Wheat germ agglutinin-coated yttrium silicate SPA beads (GE Healthcare # RPNQ0023). Dilute to 25 mg/ml in assay buffer.
Assay Buffer was prepared using Dulbecco's calcium and magnesium free phosphate buffered saline+10 mM MgCl2
Adenosine deaminase from calf intestine, 10 mg/2 ml (Roche #10 102 105 001).
A2a antagonist standard (9-chloro-1-(2-furanyl)-[1,2,4]triazolo1,5-c]quinazolin-5-amine from Tocris Bioscience)
Make eight 1:3 serial dilutions in 100% DMSO from a 3 mM compound stock
Transfer 50 nl of compound into a 384-well OptiPlate (Perkin Elmer).
Typically, final concentrations of compound used in the assay ranged from 3000 nM to 0.152 nM.
Dilute a solution of the Tritiated compound to 1.25 nM in assay buffer. This is a 2.5× solution. The final concentration in the assay is 0.5 nM. Calculate the concentration by counting two 5 μl aliquots.
Use 0.25 ug of membrane/well. Dilute membranes to 9.7 μg/ml in assay buffer. Treat with 20 ug/ml adenosine deaminase (ADA) for 15 minutes at room temperature to degrade endogenous adenosine.
Use 100 μg/well wheat germ agglutinin-coated yttrium silicate SPA beads.
Mix ADA-treated membranes and SPA beads together for 30 min prior to assay.
To the Perkin-Elmer Optiplate-384 containing the compound titration add 20 μl of 2.5× solution of the Tritiated compound and 30 μl of the membrane-bead mixture. Incubate for one hour at room temperature with agitation.
Include total binding (assay buffer+1% DMSO) and non-specific binding (CGS15943, 1 μM) wells.
Allow the beads to settle for one hour.
A curve fitting program (i.e., Prism, Activity Base, Chemcart) is used to determine the EC50. The Ki value is calculated using the Cheng-Prusoff equation. K i=EC50/(1+(radioligand concentration/Kd))

[1] = membranes from HEK293 cells expressing the human A2a receptor, 0.5 nM tritiated ligand, Cheng-Prusoff

T1 sequence (P29274 whole entry): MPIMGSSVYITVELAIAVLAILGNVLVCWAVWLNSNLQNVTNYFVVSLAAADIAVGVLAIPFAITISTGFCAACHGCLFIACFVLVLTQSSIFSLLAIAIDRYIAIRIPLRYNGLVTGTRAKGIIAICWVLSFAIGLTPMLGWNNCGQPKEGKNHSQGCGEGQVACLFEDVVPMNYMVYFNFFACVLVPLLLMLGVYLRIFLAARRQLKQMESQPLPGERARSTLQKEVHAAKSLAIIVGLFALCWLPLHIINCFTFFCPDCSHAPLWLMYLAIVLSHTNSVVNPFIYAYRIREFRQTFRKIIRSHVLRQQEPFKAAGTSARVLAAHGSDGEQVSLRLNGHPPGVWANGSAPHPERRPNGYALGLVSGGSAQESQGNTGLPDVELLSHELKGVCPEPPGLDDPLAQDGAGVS

SMILES | Ki [1] [µM] | Ki (same protocol) [µM]
COc1cccc2c1nc(N)n1nc(C(=O)Nc3ccccc3)cc21 [Ex-80, 5-amino-7-methoxy-N-phenylpyrazolo[1,5-c]quinazoline-2-carboxamide] | 0.003 | 
COc1cccc2c1nc(N)n1nc(-c3nnc(N4CCN(c5ccccc5)CC4)o3)cc21 [Ex-102, 7-methoxy-2-(5-(4-phenylpiperazin-1-yl)-1,3,4-oxadiazol-2-yl)pyrazolo[1,5-c]quinazolin-5-amine] | 0.033 | 
Nc1nc2ccc(F)cc2c2cc(Cc3cccc4cccnc34)nn12 [Ex-105, 9-fluoro-2-(quinolin-8-ylmethyl)pyrazolo[1,5-c]quinazolin-5-amine] | 0.045 | 
COc1cccc2c1nc(N)n1nc(Cc3ccccc3N(C)C)cc21 [Ex-47, 2-(2-(dimethylamino)benzyl)-7-methoxypyrazolo[1,5-c]quinazolin-5-amine] | 0.001 | 
Nc1nc2c(F)cccc2c2cc(C(=O)N3CCN(c4ccc(F)cc4F)CC3)nn12 [Ex-111, (5-amino-7-fluoropyrazolo[1,5-c]quinazolin-2-yl)(4-(2,4-difluorophenyl)piperazin-1-yl)methanone] | 0.094 | 
Nc1nc2ccc(F)cc2c2cc(Cc3ccccc3N3CCOCC3)nn12 [Ex-106, 9-fluoro-2-(2-morpholinobenzyl)pyrazolo[1,5-c]quinazolin-5-amine] | 0.065 | 
COc1cccc2c1nc(N)n1nc(Cc3cccc(F)c3C)cc21 [Ex-59, 2-(3-fluoro-2-methylbenzyl)-7-methoxypyrazolo[1,5-c]quinazolin-5-amine] | 0.021 | 
COC(=O)N1CCC2(CCN(C(=O)c3cc4c5cccc(OC)c5nc(N)n4n3)C2)C1 (stereo not drawn) [Ex-88, methyl 7-(5-amino-7-methoxypyrazolo[1,5-c]quinazoline-2-carbonyl)-2,7-diazaspiro[4.4]nonane-2-carboxylate] | 0.007 | 
COc1cccc2c1nc(N)n1nc(CN3CCN(c4ccccc4)CC3)cc21 [Ex-66, 7-methoxy-2-((4-phenylpiperazin-1-yl)methyl)pyrazolo [1,5-c]quinazolin-5-amine] | 0.145 | 
COc1cccc2c1nc(N)n1nc(Cc3ccc(F)cc3)cc21 [Ex-5, 2-(4-fluorobenzyl)-7-methoxypyrazolo[1,5-c]quinazolin-5-amine] | 0.012 | 
COc1cccc2c1nc(N)n1nc(Cc3ccc(N4CCN(C)CC4)cc3)cc21 [Ex-12, 7-methoxy-2-(4-(4-methylpiperazin-1-yl)benzyl)pyrazolo[1,5-c]quinazolin-5-amine] | 0.316 | 
COc1cccc2c1nc(N)n1nc(Cc3cccc4ccsc34)cc21 [Ex-53, 2-(benzo[b]thiophen-7-ylmethyl)-7-methoxypyrazolo[1,5-c]quinazolin-5-amine] | 0.048 | 
Nc1nc2ccccc2c2cc(Cc3cccc4cccnc34)nn12 [Ex-94, 2-(quinolin-8-ylmethyl)pyrazolo[1,5-c]quinazolin-5-amine] | 0.01 | 
COc1cccc2c1nc(N)n1nc(Cc3cccc(F)c3)cc21 [Ex-31, 2-(3-fluorobenzyl)-7-methoxypyrazolo[1,5-c]quinazolin-5-amine] | 0.002 | 
COc1cccc2c1nc(N)n1nc(C(=O)N3CCN(c4ccccn4)CC3)cc21 [Ex-70, (5-amino-7-methoxypyrazolo[1,5-c]quinazolin-2-yl)(4-(pyridin-2-yl)piperazin-1-yl)methanone] |  | 0.007
COc1cccc2c1nc(N)n1nc(Cc3c(F)cccc3Cl)cc21 [Ex-38, 2-(2-chloro-6-fluorobenzyl)-7-methoxypyrazolo[1,5-c]quinazolin-5-amine] | 0.025 | 
COc1cccc2c1nc(N)n1nc(Cc3cccc4nc(C)ccc34)cc21 [Ex-57, 7-methoxy-2-((2-methylquinolin-5-yl)methyl)pyrazolo[1,5-c]quinazolin-5-amine] | 0.165 | 
COc1cccc2c1nc(N)n1nc(Cc3cccc(F)c3F)cc21 [Ex-40, 2-(2,3-difluorobenzyl)-7-methoxypyrazolo[1,5-c]quinazolin-5-amine] | 0.006 | 

SMILES | Ki [1] [µM] | Ki (same protocol) [µM]
COc1cccc2c1nc(N)n1nc(C(=O)N3CCN(Cc4ccc(F)cc4)CC3)cc21 [Ex-73, (5-amino-7-methoxypyrazolo[1,5c]-quinazolin-2-yl)(4-(4-fluorobenzyl)-piperazin-1-yl)methanone] | 0.011 | 
COc1cccc2c1nc(N)n1nc(C(=O)NCc3ccc(Br)cc3F)cc21 [Ex-79, 5-amino-N-(4-bromo-2-fluorobenzyl)-7-methoxypyrazolo[1,5-c]quinazoline-2-carboxamide] | 0.001 | 
Nc1nc2ccc(F)cc2c2cc(C(=O)N3CCN(c4ccc(F)cc4F)CC3)nn12 [Ex-114, (5-amino-9-fluoropyrazolo[1,5-c]-quinazolin-2-yl)(4-(2,4-difluorophenyl)piperazin-1-yl)methanone] | 0.008 | 
COc1cccc2c1nc(N)n1nc(-c3nc(-c4ccccc4)no3)cc21 [Ex-92, 7-methoxy-2-(3-phenyl-1,2,4-oxadiazol-5-yl)pyrazolo[1,5-c]quinazolin-5-amine] | 0.101 | 
COc1cccc2c1nc(N)n1nc(C(=O)N3CCC4(CCNC4)CC3)cc21 [Ex-84, (5-amino-7-methoxypyrazolo[1,5-c]quinazolin-2-yl)(2,8-diazaspiro[4.5]decan-8-yl)methanone] | 0.245 | 
COc1cccc2c1nc(N)n1nc(-c3nnc(-c4cccc5cccnc45)o3)cc21 [Ex-100, 7-methoxy-2-(5-(quinolin-8-yl)-1,3,4-oxadiazol-2-yl)pyrazolo[1,5-c]quinazolin-5-amine] | 0.019 | 
COc1cccc2c1nc(N)n1nc(CN3Cc4ccc(F)cc4C3)cc21 [Ex-68, 2-((5-fluoroisoindolin-2-yl)methyl)-7-methoxypyrazolo[1,5-c]quinazolin-5-amine] | 0.024 | 
COc1cccc2c1nc(N)n1nc(Cc3cccc4ncccc34)cc21 [Ex-15, 7-methoxy-2-(quinolin-5-ylmethyl)pyrazolo[1,5-c]quinazolin-5-amine] | 0.085 | 
COc1cccc2c1nc(N)n1nc(Cc3ccc(N(C)C)cc3)cc21 [Ex-11, 2-(4-(dimethylamino)benzyl)-7-methoxypyrazolo[1,5-c]quinazolin-5-amine] | 0.061 | 
COc1cccc2c1nc(N)n1nc(Cc3ccc(N4CCN(C(=O)OC(C)(C)C)CC4)cc3)cc21 [Ex-24, tert-butyl 4-(4-((5-amino-7-methoxypyrazolo[1,5-c]quinazolin-2-yl)methyl)phenyl)piperazine-1-carboxylate] | 0.224 | 
COc1cccc2c1nc(N)n1nc(Cc3cccc(C#N)c3F)cc21 [Ex-61, 3-((5-amino-7-methoxypyrazolo[1,5-c]quinazolin-2-yl)methyl)-2-fluorobenzonitrile] | 0.021 | 
COc1cccc2c1nc(N)n1nc(Cc3ccc(N4CCOCC4)cc3)cc21 [Ex-22, 7-methoxy-2-(4-morpholinobenzyl)pyrazolo[1,5-c]quinazolin-5-amine] | 0.128 | 
Nc1nc2c(F)cccc2c2cc(-c3nnc(Cc4ccc5cccnc5c4)o3)nn12 [Ex-113, 7-fluoro-2-(5-(quinolin-7-ylmethyl)-1,3,4-oxadiazol-2-yl)pyrazolo[1,5-c]quinazolin-5-amine] | 0.007 | 
COc1cccc(Cc2cc3c4cccc(OC)c4nc(N)n3n2)c1 [Ex-34, 7-methoxy-2-(3-methoxybenzyl)pyrazolo[1,5-c]quinazolin-5-amine] | 0.007 | 
COc1cccc2c1nc(N)n1nc(Cc3ccccc3CN3CC(O)C3)cc21 [Ex-28, 1-(2-((5-amino-7-methoxypyrazolo[1,5-c]quinazolin-2-yl)methyl)benzyl)azetidin-3-ol] | 0.009 | 
COc1cccc2c1nc(N)n1nc(C(=O)N3CCC4(CCN(C(=O)OC(C)(C)C)C4)C3)cc21 (stereo not drawn) [Ex-85, tert-butyl 7-(5-amino-7-methoxypyrazolo[1,5-c]quinazoline-2-carbonyl)-2,7-diazaspiro[4.4]nonane-2-carboxylate] | 0.011 | 
COc1cccc2c1nc(N)n1nc(Cc3cccnc3N3CCOCC3)cc21 [Ex-20, 7-methoxy-2-((2-morpholinopyridin-3-yl)methyl)pyrazolo[1,5-c]quinazolin-5-amine] | 0.015 | 
Nc1nc2ccccc2c2cc(Cc3ccccc3N3CCOCC3)nn12 [Ex-96, 2-(2-morpholinobenzyl)pyrazolo[1,5c]-quinazolin-5-amine] | 0.053 | 
